Experimental data as given in patent publication US20060063720A1, “Oxaliplatin solution concentrate” (priority 2004, published 2006).

How the values were obtained:
[1] = cited from earlier work
[2] = Solubility of oxaliplatin in aqueous carbohydrate solutions (saturated solution supernatant, HPLC; pH of saturated solution); details: for Oxaliplatin concentration of the saturated solution: pH not adjusted; for pH of the saturated solution: oxaliplatin-saturated

For O=C1[O][Pt-2]2([NH2+]C3CCCC[C@H]3[NH2+]2)[O]C1=O (stereo partly drawn) [Oxaliplatin, cis-oxalato-(trans-1,2-cyclohexanediamine)-platinum(II)], the Stability in water ([1]; at least at concentrations below 1 mg/ml) is given as “not very stable”, the Solubility in ethanol ([1]; ethanol) is given as “practically insoluble” and the Solubility in methanol ([1]; methanol) is given as “scarcely soluble”. For the same molecule, the Solubility in water ([1]; water) was “soluble”, the “Oxaliplatin concentration of the saturated solution” value ([2]; 0% Glucose) was 7.66 mg/mL and the “Oxaliplatin concentration of the saturated solution” value ([2]; 5% Glucose) was 8.14 mg/mL. For the same molecule, the “Oxaliplatin concentration of the saturated solution” value ([2]; 10% Glucose) was 10.74 mg/mL, the “Oxaliplatin concentration of the saturated solution” value ([2]; 10% Lactose) was 10.12 mg/mL and the “Oxaliplatin concentration of the saturated solution” value ([2]; 10% Trehalose) was 10.32 mg/mL. For the same molecule, the “Oxaliplatin concentration of the saturated solution” value ([2]; 20% Glucose) was 11.85 mg/mL, the “Oxaliplatin concentration of the saturated solution” value ([2]; 25% Dextran 10) was 10.90 mg/mL and the “Oxaliplatin concentration of the saturated solution” value ([2]; 25% Dextran 40) was 10.85 mg/mL. For the same molecule, the “Oxaliplatin concentration of the saturated solution” value ([2]; 25% Dextran 70) was 10.90 mg/mL, the “Oxaliplatin concentration of the saturated solution” value ([2]; 25% Galactose) was 11.53 mg/mL and the “Oxaliplatin concentration of the saturated solution” value ([2]; 30% Glucose) was 12.66 mg/mL. The “Oxaliplatin concentration of the saturated solution” value ([2]; 40% Glucose) was 13.54 mg/mL, the “Oxaliplatin concentration of the saturated solution” value ([2]; 50% Fructose) was 12.56 mg/mL and the “Oxaliplatin concentration of the saturated solution” value ([2]; 50% Maltose) was 17.83 mg/mL. The solubility ([2]; aqueous solution, 25 °C, water) was 7000 to 8000 µg/mL, the solubility ([2]; aqueous solutions with solubilizers, aqueous with cosolvent or surfactant or cyclodextrin) was over 7000 µg/mL and the “Oxaliplatin concentration obtained with adjuvants” value ([2]; glucose, maltose, fructose, galactose, dextran 10, 40, 70, polyethylene glycol 200, 300, 400 and 600 as adjuvants) was “more than 7 mg/ml solvent”. For the same molecule, the “pH of the saturated solution” value ([2]; 0% Glucose) was “pH 6.1”, the “pH of the saturated solution” value ([2]; 5% Glucose) was “pH 5.9” and the “pH of the saturated solution” value ([2]; 10% Glucose) was “pH 5.8”. The “pH of the saturated solution” value ([2]; 10% Lactose) was “pH 4.3”, the “pH of the saturated solution” value ([2]; 10% Trehalose) was “pH 4.6” and the “pH of the saturated solution” value ([2]; 20% Glucose) was “pH 5.7”. For the same molecule, the “pH of the saturated solution” value ([2]; 25% Dextran 10) was “pH 4.8”, the “pH of the saturated solution” value ([2]; 25% Dextran 40) was “pH 4.2” and the “pH of the saturated solution” value ([2]; 25% Dextran 70) was “pH 4.1”. The “pH of the saturated solution” value ([2]; 25% Galactose) was “pH 6.3”, the “pH of the saturated solution” value ([2]; 30% Glucose) was “pH 5.6” and the “pH of the saturated solution” value ([2]; 40% Glucose) was “pH 5.6”. The “pH of the saturated solution” value ([2]; 50% Fructose) was “pH 4.7”, the “pH of the saturated solution” value ([2]; 50% Maltose) was “pH 3.7” and the solubility ([2]; water) was about 7500 µg/mL. For the same molecule, the “Maximum concentration of oxaliplatin in water” value ([2]; with additional dissolved tonic, pH-adjusting, buffering or preserving adjuvants) was 7 mg/mL.
